Test [1] relates to mouse J774A.1 macrophages. The test can be described thus: Silica crystal-induced IL-1β production in LPS-treated J774A.1 macrophages (ELISA). The format is cell-based. Conditions: M1 30 min, then 1 μg/ml LPS, then 200 μg/ml silica crystal 24 h, FIG. 1, p<0.001 vs silica crystals alone. As for the experimental part:
The levels of IL-1β in the culture medium were measured by ELISA. *** indicates a significant difference at the level of p<0.001 compared to […].
In FIG. 1, J774A.1 macrophages (1×10^5 cells/500 μl medium/well) were incubated for 30 min with or without Ginsenoside M1, then for 2 h with or without 1 μg/ml LPS (from Escherichia coli 0111:B4, purchased from Sigma, St. Louis, Mo.) in the continued presence or absence of Ginsenoside M1, and then for 24 h with or without 200 μg/ml silica crystal (purchased from InvivoGen, San Diego, Calif.). The levels of IL-1β in the culture medium were measured by ELISA.
For ELISA assay, 50 μl of biotinylated antibody reagent and 50 μl of culture medium were added to an anti-IL-1β, TNF-α or IL-6 precoated stripwell plate, and incubated at room temperature for 2 h. After washing the plate three times with washing buffer, 100 μl of diluted streptavidin-HRP (horseradish peroxidase) concentrate was added to each well and incubated at room temperature for 30 min. The washing process was repeated; then 100 μl of a premixed tetramethylbenzidine substrate solution was added to each well and developed at room temperature in the dark for 30 min Following the addition of 100 μl of provided stop solution to each well to stop the reaction, the absorbance of the plate was measured by a microplate reader at a 450 nm wavelength. […]
On the technique in general: ELISA stands for enzyme-linked immunosorbent assay.

Test [2] has as its system mouse J774A.1 macrophages. Nature of the test: LPS-induced NLRP3 and proIL-1β expression in J774A.1 macrophages (Western blot). The format is cell-based. Conditions: M1 30 min, then 1 μg/ml LPS 6 h, FIG. 2. As for the experimental part:
The levels of NLRP3 and […] in the cell lysates were measured by Western blot.
In FIG. 2, J774A.1 macrophages (2×10^6 cells/2 ml medium/dish) were incubated for 30 min with or without Ginsenoside M1, then for 6 h with or without 1 μg/ml LPS in the continued presence or absence of Ginsenoside M1. The levels of NLRP3 and proIL-1β in the cell lysates were measured by Western blot. In brief, After treatment, the cells were collected and lysed at 4° C. in lysis buffer (25 mM Tris-HCl, pH 7.5, 100 mM NaCl, 2.5 mM EDTA, 2.5 mM EGTA, 20 mM NaF, 1 mM Na3VO4, 20 mM sodium β-glycerophosphate, 10 mM sodium pyrophosphate, 0.5% Triton X-100) containing protease inhibitor cocktail (Sigma, St. Louis, Mo.), then the whole cell lysate was separated by SDS-PAGE and electrotransferred to a PVDF membrane. The membranes were incubated for 1 h at room temperature in blocking solution (5% nonfat milk in phosphate buffered saline with 0.1% Tween 20), then were incubated for 2 h at room temperature with NLRP3 or proIL-1β antibody in blocking solution. […]
J774A.1 macrophages were incubated for 30 min with or without Ginsenoside M1, then for 6 h with or without 1 μg/ml LPS in the continued presence or absence of Ginsenoside M1. The levels of NLRP3 and proIL-1β in the cell lysates were measured by Western blot.
(A western blot detects proteins with antibodies after separation by electrophoresis.)

A further test concerns human THP-1 macrophages. The test can be described thus: Silica crystal-induced cytokine production in THP-1 macrophages, Ginsenoside M1 added before LPS (ELISA). The format is cell-based. Conditions: M1 30 min, then 1 μg/ml LPS 5 h, then 200 μg/ml silica crystal 24 h. As for the experimental part: The levels of IL-1β in the culture medium were measured by ELISA. ** indicates a significant difference at the level of p<0.01 compared to silica crystal alone.
The levels of TNF-α in the culture medium were measured by ELISA. ** and *** indicates a significant difference at the level of p<0.01 and p<0.001, respectively compared to silica crystal alone.
The levels of IL-6 in the culture medium were measured by ELISA. * and *** indicates a significant difference at the level of p<0.05 and p<0.001, respectively compared to silica crystal alone.
(§1) The mouse macrophages cell line J774A.1 and human monocytic leukemia cell line THP-1 was obtained from the American Type Culture Collection (Rockville, Md.) and cultured in RPMI 1640 medium supplemented with 10% heat-inactivated fetal bovine serum (FBS) and 2 mM L-glutamine (all from Life Technologies, Carlsbad, Calif.) at 37° C. in a 5% CO2 incubator. To induce monocyte-to-macrophage differentiation, THP-1 cells were cultured for 48 h in RPMI-1640 medium supplemented with 100 nM phorbol 12-myristate 13-acetate (Sigma-Aldrich).
In FIG. 3-5, THP-1 macrophages (1×10^5 cells/500 μl medium/well) were incubated for 30 min with or without Ginsenoside M1, then for 5 h with or without 1 μg/ml LPS in the continued presence or absence of Ginsenoside M1, and then for 24 h with or without 200 μg/ml silica crystal (purchased from InvivoGen, San Diego, Calif.). The levels of IL-1β (FIG. 3), TNF-α (FIG. 4) and IL-6 (FIG. 5) in the culture medium were measured by ELISA.
(§2) For ELISA assay, 50 μl of biotinylated antibody reagent and 50 μl of culture medium were added to an anti-IL-1β, TNF-α or IL-6 precoated stripwell plate, and incubated at room temperature for 2 h. […] The washing process was repeated; then 100 μl of a premixed tetramethylbenzidine substrate solution was added to each well and developed at room temperature in the dark for 30 min Following the addition of 100 μl of provided stop solution to each well to stop the reaction, the absorbance of the plate was measured by a microplate reader at a 450 nm wavelength. […]

Test [3] relates to LPS-primed THP-1 macrophages. Nature of the test: Silica crystal-induced cytokine production in LPS-primed THP-1 macrophages, Ginsenoside M1 added after LPS priming (ELISA). In kind it is cell-based, human. Conditions: THP-1 primed 5 h with 1 μg/ml LPS, then M1 30 min, then 200 μg/ml silica crystal 24 h. As for the experimental part: The levels of IL-1β in the culture medium were measured by ELISA. ** and *** indicates a significant difference at the level of p<0.01 and p<0.001, respectively compared to silica crystal alone.
The levels of TNF-α in the culture medium were measured by ELISA. ** indicates a significant difference at the level of p<0.01 compared to silica crystal alone.
The levels of IL-6 in the culture medium were measured by ELISA. *** indicates a significant difference at the level of p<0.001 compared to silica crystal alone.
as §1
In FIG. 6-8, THP-1 macrophages (1×10^5 cells/500 μl medium/well) were incubated for 5 h with or without 1 μg/ml LPS, then for 30 min with or without Ginsenoside M1 in the continued presence or absence of LPS, and then for 24 h with or without 200 μg/ml silica crystal. The levels of IL-1β (FIG. 6), TNF-α (FIG. 7) and IL-6 (FIG. 8) in the culture medium were measured by ELISA.
as §2

The subject of the next test is Male C57BL/6 mice. Nature of the test: Silica crystal-induced silicosis in mice, BALF analysis. Particulars: 60 mg/kg oral gavage daily day 0, 1, 2. In kind it is in vivo, mouse. How it is done: In FIG. 9-12, the animal experiments were conducted in accordance with the guidelines of the National Institutes of Health and approved by the Institutional Animal Care and Use Committee of National Ilan University. Male C57BL/6 mice were purchased from the National Laboratory Animal Center (Taipei, Taiwan). The animals were provided a chow diet and water ad libitum under conditions of 22-24° C., 40-70% relative humidity, and a 12 h light-dark cycle. Ginsenoside M1 (60 mg/kg body weight) was oral administered daily by gavage at day 0, 1 and 2. Silicosis in mice was induced by intratracheally exposed to 40 μl aqueous suspensions of 200 μg of silica crystals in PBS daily at day 0, 1 and 2 (n=6). Each day, mice exposed to silica crystals 4 h after Ginsenoside M1 administration. Control mice received PBS. After 4 h of the last silica crystals exposure, all mice were sacrificed using neck breaking, and a bronchoalveolar lavage was carried out by repeatedly instillating and withdrawing 1 ml of 1% BSA/PBS solution three consecutive times. The levels of IL-1β and IL-6 in the bronchoalveolar lavage fluid (BALF) were measured by ELISA. The total cell number in the BALF was counted by a hematocytometer and protein concentration in the BALF was determined by protein assay dye.
For ELISA assay, 50 μl of biotinylated antibody reagent and 50 μl of culture medium were added to an anti-IL-1β, TNF-α or IL-6 precoated stripwell plate, and incubated at room temperature for 2 h. After washing the plate three times with washing buffer, 100 μl of diluted streptavidin-HRP (horseradish peroxidase) concentrate was added to each well and incubated at room temperature for 30 min. The washing process was repeated; then 100 μl of a premixed tetramethylbenzidine substrate solution was added to each well and developed at room temperature in the dark for 30 min Following the addition of 100 μl of provided stop solution to each well to stop the reaction, the absorbance of the plate was measured by a microplate reader at a 450 nm wavelength.

Take “20-O-β-D-glucopyranosyl-20(S)-protopanaxadiol [Ginsenoside M1]”: the “IL-1β secretion in the culture medium” value in test [1] is “reduced”. Also, the “level of NLRP3 in the cell lysates” value in test [2] is “reduced”. Further, in test [2], the “level of proIL-1β in the cell lysates” value is given as “reduced”. Further, the IL-1β production entry in the test on human THP-1 macrophages (FIG. 3, p<0.01) is recorded as “reduced”; in test [3] (FIG. 6, p<0.01 and p<0.001), “reduced”. In addition, the TNF-α production entry in the test with human THP-1 macrophages (FIG. 4, p<0.01 and p<0.001) is on record as “reduced”; in test [3] (FIG. 7, p<0.01), “reduced”. Besides, the IL-6 production result with human THP-1 macrophages (FIG. 5, p<0.05 and p<0.001) is “reduced”; in test [3] (FIG. 8, p<0.001) it was “reduced”. Moreover, in the test on Male C57BL/6 mice (intratracheal 200 μg silica crystals 4 h after dosing, FIG. 9, p<0.001), the “silica crystal-induced IL-1β production in the murine BALF” value is recorded as “significantly reduced”. The “silica crystal-induced IL-6 production in the murine BALF” value in the test with Male C57BL/6 mice (intratracheal 200 μg silica crystals 4 h after dosing, FIG. 10, p<0.001) was “significantly reduced”. Besides, the “silica crystal-induced increase of total cell number in BALF” value in the test with Male C57BL/6 mice (intratracheal 200 μg silica crystals, hematocytometer, FIG. 12, p<0.01) is reported as “significantly inhibited”. Further, the “silica crystal-induced increase of total protein concentration in BALF” value in the test on Male C57BL/6 mice (intratracheal 200 μg silica crystals, protein assay dye, FIG. 11, p<0.001) was “significantly inhibited”.
